Reference: patent publication US9447156B2, “Methods and compositions for inhibiting neddylation of proteins” (St. Jude Children's Research Hospital, priority 2011, dated 2016)
No end group written: not given here.

T1: yDcn1^P (Saccharomyces cerevisiae, UniProt Q12395)
T1 construct: made in house; host or cells: E. coli
T1 sequence (Q12395 70-269): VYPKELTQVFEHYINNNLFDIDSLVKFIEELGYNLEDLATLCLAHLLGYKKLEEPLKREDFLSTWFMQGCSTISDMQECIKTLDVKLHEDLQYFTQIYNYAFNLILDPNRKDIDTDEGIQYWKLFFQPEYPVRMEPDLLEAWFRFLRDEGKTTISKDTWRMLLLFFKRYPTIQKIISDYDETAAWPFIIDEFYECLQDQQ

T2: yE1 for yNedd8 (Ula1Uba3) (Saccharomyces cerevisiae, UniProt Q99344)
T2 construct: made in house; host or cells: E. coli
T2 sequence (Q99344 1-299): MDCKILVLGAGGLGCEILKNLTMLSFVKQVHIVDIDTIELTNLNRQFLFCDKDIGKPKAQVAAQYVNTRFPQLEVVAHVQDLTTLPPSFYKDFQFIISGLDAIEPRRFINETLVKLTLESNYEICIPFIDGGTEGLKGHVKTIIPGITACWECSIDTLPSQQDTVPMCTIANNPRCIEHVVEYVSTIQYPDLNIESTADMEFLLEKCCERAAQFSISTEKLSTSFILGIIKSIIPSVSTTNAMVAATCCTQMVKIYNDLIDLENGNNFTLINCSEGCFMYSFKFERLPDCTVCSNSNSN
T2 sequence (Q12059 1-462 partner): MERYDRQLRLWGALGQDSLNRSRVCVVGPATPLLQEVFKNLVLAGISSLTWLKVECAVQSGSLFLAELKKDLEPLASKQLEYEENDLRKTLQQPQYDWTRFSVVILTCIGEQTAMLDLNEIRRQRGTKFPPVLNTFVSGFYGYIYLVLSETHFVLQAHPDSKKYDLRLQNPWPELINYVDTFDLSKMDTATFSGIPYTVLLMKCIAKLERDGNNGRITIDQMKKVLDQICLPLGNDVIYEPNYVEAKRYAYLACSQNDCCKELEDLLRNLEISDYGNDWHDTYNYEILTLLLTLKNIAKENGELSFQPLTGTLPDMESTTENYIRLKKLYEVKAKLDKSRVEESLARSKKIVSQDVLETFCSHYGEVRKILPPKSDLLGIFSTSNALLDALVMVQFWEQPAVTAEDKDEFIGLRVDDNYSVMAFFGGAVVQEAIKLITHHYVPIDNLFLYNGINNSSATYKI

T3: hDcn3^P (Homo sapiens, UniProt Q8IWE4)
T3 sequence (Q8IWE4 86-304): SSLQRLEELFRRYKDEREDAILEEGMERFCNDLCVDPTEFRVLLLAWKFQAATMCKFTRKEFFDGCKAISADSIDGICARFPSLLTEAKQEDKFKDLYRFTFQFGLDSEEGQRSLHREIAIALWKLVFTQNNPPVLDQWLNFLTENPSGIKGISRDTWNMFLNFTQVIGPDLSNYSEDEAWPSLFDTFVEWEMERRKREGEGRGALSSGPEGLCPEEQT

T4: hDcn5^P (Homo sapiens, UniProt Q9BTE7)
T4 construct: human Dcn1 family members 1-5 (also called DCUND1-DCUND5)
T4 sequence (Q9BTE7 47-237): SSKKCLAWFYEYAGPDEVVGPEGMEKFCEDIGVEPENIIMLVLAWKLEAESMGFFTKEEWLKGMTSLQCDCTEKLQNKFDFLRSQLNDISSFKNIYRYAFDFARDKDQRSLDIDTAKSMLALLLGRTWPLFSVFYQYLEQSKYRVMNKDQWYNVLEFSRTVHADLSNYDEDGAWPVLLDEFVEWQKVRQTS

B1: CAND1: protein inhibitor of Cul1 neddylation, expressed in E. coli (protein, UniProt Q86VP6 2-1230, looked up)
Cullin-associated …: ASASYHISNLLEKMTSSDKDFRFMATNDLMTELQKDSIKLDDDSERKVVKMILKLLEDKNGEVQNLAVKCLGPLVSKVKEYQVETIVDTLCTNMLSDKEQLRDISSIGLKTVIGELPPASSGSALAANVCKKITGRLTSAIAKQEDVSVQLEALDIMADMLSRQGGLLVNFHPSILTCLLPQLTSPRLAVRKRTIIALGHLVMSCGNIVFVDLIEHLLSELSKNDSMSTTRTYIQCIAAISRQAGHRIGEYLEKIIPLVVKFCNVDDDELREYCIQAFESFVRRCPKEVYPHVSTIINICLKYLTYDPNYNYDDEDEDENAMDADGGDDDDQGSDDEYSDDDDMSWKVRRAAAKCLDAVVSTRHEMLPEFYKTVSPALISRFKEREENVKADVFHAYLSLLKQTRPVQSWLCDPDAMEQGETPLTMLQSQVPNIVKALHKQMKEKSVKTRQCCFNMLTELVNVLPGALTQHIPVLVPGIIFSLNDKSSSSNLKIDALSCLYVILCNHSPQVFHPHVQALVPPVVACVGDPFYKITSEALLVTQQLVKVIRPLDQPSSFDATPYIKDLFTCTIKRLKAADIDQEVKERAISCMGQIICNLGDNLGSDLPNTLQIFLERLKNEITRLTTVKALTLIAGSPLKIDLRPVLGEGVPILASFLRKNQRALKLGTLSALDILIKNYSDSLTAAMIDAVLDELPPLISESDMHVSQMAISFLTTLAKVYPSSLSKISGSILNELIGLVRSPLLQGGALSAMLDFFQALVVTGTNNLGYMDLLRMLTGPVYSQSTALTHKQSYYSIAKCVAALTRACPKEGPAVVGQFIQDVKNSRSTDSIRLLALLSLGEVGHHIDLSGQLELKSVILEAFSSPSEEVKSAASYALGSISVGNLPEYLPFVLQEITSQPKRQYLLLHSLKEIISSASVVGLKPYVENIWALLLKHCECAEEGTRNVVAECLGKLTLIDPETLLPRLKGYLISGSSYARSSVVTAVKFTISDHPQPIDPLLKNCIGDFLKTLEDPDLNVRRVALVTFNSAAHNKPSLIRDLLDTVLPHLYNETKVRKELIREVEMGPFKHTVDDGLDIRKAAFECMYTLLDSCLDRLDIFEFLNHVEDGLKDHYDIKMLTFLMLVRLSTLCPSAVLQRLDRLVEPLRATCTTKVKANSVKQEFEKQDELKRSAMRAVAALLTIPEAEKSPLMSEFQSQISSNPELAAIFESIQKDSSSTNLESMDTS

How the values were obtained:
yDcn1^P = molecular target: T1, yDcn1^P; assay: ITC binding of Ubc12 peptides to yDcn1^P; design: species or system S. cerevisiae; conditions: for ΔH / ΔS: ITC, protein yDcn1^P; for ΔH: change in enthalpy; for ΔS: change in entropy
Protocol: (§1) Protein samples were buffer matched by desalting over a NAP-5 column (GE Healthcare) into 50 mM Hepes, 125 mM NaCl, 1 mM BME, pH 7.0 (ITC buffer). Peptides were dissolved by weight to a final concentration of 10 mM in ITC buffer and diluted further in ITC buffer as required for the experiments. […] The peptide ligands (4 mM) were constantly injected (1.5 μl). The interval time between each injection was 3 minutes and the duration of each injection was 3 seconds. For titrations involving hE1 and yE1, proteins were placed into the sample cell at a final concentration of 25 μM at 22° C. Peptide ligands (250 μM) were constantly injected (2.5 μl). The interval time between each injection was three minutes and the duration of each injection was 5 seconds. For hCul1^ctd-Rbx1:hDcn1^P binding, proteins were buffer matched by desalting over a NAP-5 column in 25 mM Tris, 0.1 M NaCl, 1 mM BME, pH 7.6. hCul1^ctd-Rbx1 was placed into the sample cell at a final concentration of 55 μM at 22° C. […]) was constantly injected (2.5 μl). The interval time between each injection was 3 minutes and the duration of each injection was 5 seconds.

[1] = molecular target: T2, yE1 for yNedd8 (Ula1Uba3); assay: ITC binding of Ubc12 peptides to yE1; design: species or system S. cerevisiae; conditions: for ΔH / ΔS: ITC, protein yE1; for ΔH: change in enthalpy; for ΔS: change in entropy
Protocol: as §1

hDcn2^P = molecular target: T5, hDcn2^P (Homo sapiens, UniProt Q6PH85); assay: ITC binding of peptides to hDcn2^P; conditions: Example 3
T5 construct: human Dcn1 family members 1-5 (also called DCUND1-DCUND5)
Protocol: (§2) Protein samples were buffer matched by desalting over a NAP-5 column (GE Healthcare) into 50 mM Hepes, 125 mM NaCl, 1 mM BME, pH 7.0 (ITC buffer). Peptides were dissolved by weight to a final concentration of 10 mM in ITC buffer and diluted further in ITC buffer as required for the experiments. Measurements were performed using a MicroCal ITC200. hDcn1^P or yDcn1^P were placed into the sample cell at a final concentration of 400 μM at 18° C. The peptide ligands (4 mM) were constantly injected (1.5 μl). The interval time between each injection was 3 minutes and the duration of each injection was 3 seconds. For titrations involving hE1 and yE1, proteins were placed into the sample cell at a final concentration of 25 μM at 22° C. Peptide ligands (250 μM) were constantly injected (2.5 μl). The interval time between each injection was three minutes and the duration of each injection was 5 seconds. For hCul1^ctd-Rbx1:hDcn1^P binding, proteins were buffer matched by desalting over a NAP-5 column in 25 mM Tris, 0.1 M NaCl, 1 mM BME, pH 7.6. hCul1^ctd-Rbx1 was placed into the sample cell at a final concentration of 55 μM at 22° C. hDcn1^P (550 μM) was constantly injected (2.5 μl). The interval time between each injection was 3 minutes and the duration of each injection was 5 seconds. Obtained spectra were evaluated using Origin (V 7.0) to determine heats of binding and Kd values.
(§3) The affinity of various peptides for hDcn1^P, hDcn2^P, hDcn3^P, hDcn4^P, and hDcn5^P was tested using isothermal titration calorimetry as described in Example 1 and is provided in Table 29.

hDcn1^P = molecular target: T6, hDcn1^P (Homo sapiens, UniProt Q96GG9); assay: ITC binding of Ubc12/Ube2f peptides to hDcn1^P; conditions: Example 3
T6 construct: hDcn1^P corresponds to residues 62 to the C-terminal residue 259 of hDcn1; GST (cleaved yes); made in house; host or cells: E. coli BL21(DE3)Gold
Protocol: as §2, §3

hDcn3^P = molecular target: T3, hDcn3^P; assay: ITC binding of peptides to hDcn3^P
Protocol: as §2, §3

hDcn5^P = molecular target: T4, hDcn5^P; assay: ITC binding of peptides to hDcn5^P; conditions: Table 29, peptides with amidated carboxy-terminus
Protocol: as §2, with “values. […]” for “values.”

hCul1^ctd-hRbx1 = assay: Pulse-chase assay of [32P]~hNedd8 transfer from hUbc12 to hCul1-hRbx1 with or without hDcn1^P; assay type: biochemical, human; conditions: FIG. 3
Protocol: Dcn1^P-mediated co-E3 activity was monitored using pulse-chase assays to exclusively monitor effects of acetylation on Nedd8 transfer to Cul1 without sensing earlier steps in the reaction. For the “pulse”, 10 μM of the indicated versions of yUbc12 were charged with [^32P]-yNedd8 (also referred to as [^32P]-Rub1) as described previously (Scott et al. (2010) Mol Cell 39(5):784-796), resulting in formation of a thiolester-linked yUbc12-[^32P]-yNedd8 intermediate. 10 μM of the indicated versions of hUbc12 were charged similarly with [^32P]-hNedd8, for 15 minutes at room temperature using 0.1 μM hE1, 15 μM [^32P]-hNedd8, in 50 mM Hepes, 100 mM NaCl, 1.25 mM ATP, 2.5 mM MgCl2, pH 7.5. Formation of a yUbc12-[^32P]-yNedd8 or hUbc12-[^32P]-hNedd8 intermediate was quenched with 50 mM EDTA on ice for 5 minutes. Other than in FIG. 3, where additional details are provided, chase reactions with hUbc12 and yUbc12 variants involved dilution of the Ubc12-[^32P]-Nedd8 thioester conjugate to 40 nM in 50 mM BisTris, 100 mM NaCl, 50 mM EDTA, 0.5 mg/ml BSA, pH 6.7. Chase reactions were initiated at 0° C. by the addition of hCul1^ctd-hRbx1, yCul1^C+-yRbx1, hDcn1^P-hCul1^ctd-hRbx1, or yDcn1^P-yCul1^C+-yRbx1 at a final concentration of 125 nM. Aliquots were removed at the indicated times and quenched with 2×SDS-PAGE sample buffer. […]

T5 sequence (Q6PH85 62-259): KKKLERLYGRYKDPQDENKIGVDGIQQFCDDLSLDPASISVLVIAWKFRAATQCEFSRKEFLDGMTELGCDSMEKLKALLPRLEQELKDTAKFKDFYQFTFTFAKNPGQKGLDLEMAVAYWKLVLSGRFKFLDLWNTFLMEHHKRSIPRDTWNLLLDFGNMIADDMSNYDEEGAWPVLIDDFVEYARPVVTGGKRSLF
T6 sequence (Q96GG9 62-259): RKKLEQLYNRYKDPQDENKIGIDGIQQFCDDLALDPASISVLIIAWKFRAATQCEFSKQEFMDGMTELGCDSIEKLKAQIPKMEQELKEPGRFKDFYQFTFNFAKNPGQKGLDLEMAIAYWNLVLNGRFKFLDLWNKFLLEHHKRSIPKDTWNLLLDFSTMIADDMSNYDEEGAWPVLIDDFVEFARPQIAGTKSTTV

| Molecule | ΔH (yDcn1^P) | ΔS (yDcn1^P) [cal/mol/deg] | Kd [1] [nM] | ΔH [1] | ΔS [1] [cal/mol/deg] | also measured |
| --- | --- | --- | --- | --- | --- | --- |
| H-MLKLRQLQKKKQKENENSSSIQPN-NH2 [yUbc12^1-24] | 3,777 cal/mol | 33.4 | 70 | −8,571 cal/mol | 2.65 | Kd (yDcn1^P): > 40000 nM |
| hUbc12Ac1-26: N-terminally acetylated peptide of residues 1-26 of human Ubc12 (Ac-MIKLFSLKQQKKEEESAGGTKGSSKK-NH2) | – | – | – | – | – | affinity for Dcn2 (comparison in words) (hDcn2^P): greatest affinity; affinity for Dcn1 (comparison in words) (hDcn1^P): greatest affinity |
| Ac-LKLRQLQKKKQKENENSSSIQPN-NH2 [Acetyl-yUbc12^2-24] | 3,761 cal/mol | 33.4 | 1580 | −9,625 cal/mol | −7.21 | Kd (yDcn1^P): > 37000 nM |
| MLTLASKLKRDDGLKGSRTAATASD-NH2 [hUbe2f^1−25] | – | – | – | – | – | Kd (hDcn3^P; Table 29, peptides with amidated carboxy-terminus): > 400000 nM |
| Ac-MLKLRQLQKKKQKENENSSSIQPN-NH2 [yUbc12Ac1-24] | 4,145 cal/mol | 43.6 | 16 | −11,260 cal/mol | −3.8 | affinity for Dcn2 (comparison in words) (hDcn2^P): greatest affinity; affinity for Dcn1 (comparison in words) (hDcn1^P): greatest affinity |
| CC[C@H](C)[C@H](NC(=O)[C@H](CCSC)NC(C)=O)C(=O)N[C@@H](CCCCN)C(=O)N[C@@H](CC(C)C)C(=O)N[C@@H](Cc1ccccc1)C(=O)N[C@@H](CO)C(=O)N[C@@H](CC(C)C)C(=O)N[C@@H](CCCCN)C(=O)N[C@@H](CCC(N)=O)C(=O)N[C@@H](CCC(N)=O)C(=O)N[C@@H](CCCCN)C(=O)N[C@@H](CCCCN)C(N)=O [hUbc12^Ac1−12] | – | – | – | – | – | Kd (hDcn5^P): > 30000 nM |
| hUbe2fAcl-25: N-terminally acetylated human Ube2f residues 1-25 (Ac-MLTLASKLKRDDGLKGSRTAATASD-NH2) | – | – | – | – | – | affinity for Dcn3 (comparison in words) (hDcn3^P; Example 3): greatest affinity; binding specificity for Dcn3 over other co-E3 proteins (hDcn3^P; Example 3): fairly specific |
| B1 | – | – | – | – | – | Cul1 neddylation in the presence of Dcn1^P and Ubc12 N-terminal acetylation (hCul1^ctd-hRbx1): blocked |
